Source: paper PMC8459971, “Evaluation of the hepatotoxicity of the novel GPR40 (FFAR1) agonist CPL207280 in the rat and monkey” (PLoS ONE, 2021)
Where two headings read alike, the source gives them in different places.

Tested on: HepaRG spheroids
Test: HepaRG 3D spheroids, cell and mitochondrial health markers, 14 days
Settings: TIMEPOINT 336
[1] = HepaRG spheroid, at the concentration (uM) given
[2] = HepaRG spheroid, plotted value at the concentration given

Experimental: Hepatic spheroids were formed by seeding HepaRG™ cells into round-bottom ultra-low adhesion 96-well spheroid plates (Corning®) in 3D liver media with 0.5% DMSO, 100 U/mL penicillin, and 100 mg/L streptomycin. Cells were incubated at 37°C and 5% CO2 until spheroid formation and then compound-treated. The test compound was diluted in the vehicle, and serial dilutions were made in a 0.5% vehicle in HepaRG™ induction media. […] L-buthionine sulfoximine was used as positive control for GSH content, whereas rotenone was simultaneously used as a positive control for mitochondrial dysfunction and ATP content. At the end of the incubation period, the cells were loaded with the relevant dye for each cell health marker: DNA structure–Hoescht, GSH content–mBCL, ROS formation–DHE, mitochondrial dysfunction–MitoTracker, and cellular ATP content–CellTiter-Glo®, Promega. The plate was then scanned using an automated confocal fluorescent cellular imager, ArrayScan® XTI (Thermo Scientific Cellomics) at 37°C and 5% CO2. Further, the cellular ATP content was measured using CellTiter-Glo® (Promega, USA).

N#CC(C#N)=NNc1cccc(Cl)c1 [carbonyl cyanide 3-chlorophenylhydrazone]
Cellular ATP Mean Plotted Value (CONC 0.04 uM): 1.06
DNA structure Mean Plotted Value (CONC 0.04 uM): 0.942
Glutathione content Mean Plotted Value (CONC 0.04 uM): 0.925
Mitochondrial mass Mean Plotted Value (CONC 0.04 uM): 1.13
Mitochondrial membrane potential Mean Plotted Value (CONC 0.04 uM): 1.05
Oxidative stress Mean Plotted Value (CONC 0.04 uM): 1.02
Spheroid count Mean Plotted Value (CONC 0.04 uM): 1
Spheroid size Mean Plotted Value (CONC 0.04 uM): 1.01
Cellular ATP Mean Plotted Value (CONC 0.1 uM): 1.01
DNA structure Mean Plotted Value (CONC 0.1 uM): 1.05
Glutathione content Mean Plotted Value (CONC 0.1 uM): 0.914
Mitochondrial mass Mean Plotted Value (CONC 0.1 uM): 1.06
Mitochondrial membrane potential Mean Plotted Value (CONC 0.1 uM): 1.15
Oxidative stress Mean Plotted Value (CONC 0.1 uM): 1
Spheroid count Mean Plotted Value (CONC 0.1 uM): 1
Spheroid size Mean Plotted Value (CONC 0.1 uM): 1.04
Cellular ATP Mean Plotted Value (CONC 0.4 uM): 0.966
DNA structure Mean Plotted Value (CONC 0.4 uM): 1.07
Glutathione content Mean Plotted Value (CONC 0.4 uM): 0.993
Mitochondrial mass Mean Plotted Value (CONC 0.4 uM): 0.994
Mitochondrial membrane potential Mean Plotted Value (CONC 0.4 uM): 1.07
Oxidative stress Mean Plotted Value (CONC 0.4 uM): 0.993
Spheroid count Mean Plotted Value (CONC 0.4 uM): 1
Spheroid size Mean Plotted Value (CONC 0.4 uM): 0.969
Cellular ATP Mean Plotted Value (CONC 1 uM): 0.843
DNA structure Mean Plotted Value (CONC 1 uM): 0.905
Glutathione content Mean Plotted Value (CONC 1 uM): 0.819
Mitochondrial mass Mean Plotted Value (CONC 1 uM): 1.11
Mitochondrial membrane potential Mean Plotted Value (CONC 1 uM): 0.995
Oxidative stress Mean Plotted Value (CONC 1 uM): 1.12
Spheroid count Mean Plotted Value (CONC 1 uM): 1
Spheroid size Mean Plotted Value (CONC 1 uM): 0.994
Cellular ATP Mean Plotted Value (CONC 4 uM): 0.0197
DNA structure Mean Plotted Value (CONC 4 uM): 0.726
Glutathione content Mean Plotted Value (CONC 4 uM): 0.176
Mitochondrial mass Mean Plotted Value (CONC 4 uM): 0.851
Mitochondrial membrane potential Mean Plotted Value (CONC 4 uM): 0.876
Oxidative stress Mean Plotted Value (CONC 4 uM): 1.36
Spheroid count Mean Plotted Value (CONC 4 uM): 1
Spheroid size Mean Plotted Value (CONC 4 uM): 0.828
Cellular ATP Mean Plotted Value (CONC 10 uM): -0.000228
DNA structure Mean Plotted Value (CONC 10 uM): 0.0956
Glutathione content Mean Plotted Value (CONC 10 uM): 0.111
Mitochondrial mass Mean Plotted Value (CONC 10 uM): 0.763
Mitochondrial membrane potential Mean Plotted Value (CONC 10 uM): 0.627
Oxidative stress Mean Plotted Value (CONC 10 uM): 1.36
Spheroid count Mean Plotted Value (CONC 10 uM): 1
Spheroid size Mean Plotted Value (CONC 10 uM): 0.751
Cellular ATP Mean Plotted Value (CONC 40 uM): -0.000179
DNA structure Mean Plotted Value (CONC 40 uM): 0.0736
Glutathione content Mean Plotted Value (CONC 40 uM): 0.0824
Mitochondrial mass Mean Plotted Value (CONC 40 uM): 0.515
Mitochondrial membrane potential Mean Plotted Value (CONC 40 uM): 0.236
Oxidative stress Mean Plotted Value (CONC 40 uM): 0.339
Spheroid count Mean Plotted Value (CONC 40 uM): 1
Spheroid size Mean Plotted Value (CONC 40 uM): 0.674
Cellular ATP Mean Plotted Value (CONC 100 uM): 8.57e-5
DNA structure Mean Plotted Value (CONC 100 uM): 0.0501
Glutathione content Mean Plotted Value (CONC 100 uM): 0.0467
Mitochondrial mass Mean Plotted Value (CONC 100 uM): 0.488
Mitochondrial membrane potential Mean Plotted Value (CONC 100 uM): 0.132
Oxidative stress Mean Plotted Value (CONC 100 uM): 0.234
Spheroid count Mean Plotted Value (CONC 100 uM): 1
Spheroid size Mean Plotted Value (CONC 100 uM): 0.58
Cellular ATP MEC (HepaRG spheroid): 0.829 µM
DNA structure MEC (HepaRG spheroid): 3.51 µM
Glutathione content MEC (HepaRG spheroid): 0.876 µM
Mitochondrial mass MEC (HepaRG spheroid): 6.35 µM
Mitochondrial membrane potential MEC (HepaRG spheroid): 5.82 µM
Oxidative stress MEC (HepaRG spheroid): 1.46 µM
Spheroid size MEC (HepaRG spheroid): 2.63 µM
Cellular ATP MR (% @ concentration) [1]: 100%
DNA structure MR (% @ concentration) [1]: 95%
Glutathione content MR (% @ concentration) [1]: 91%
Mitochondrial mass MR (% @ concentration) [1]: 52%
Mitochondrial membrane potential MR (% @ concentration) [1]: 88%
Oxidative stress MR (% @ concentration) [1]: 37%
Spheroid size MR (% @ concentration) [1]: 35%
Cellular ATP MR [2]: -0.000228
DNA structure MR [2]: 0.0501
Glutathione content MR [2]: 0.0824
Mitochondrial mass MR [2]: 0.515
Mitochondrial membrane potential MR [2]: 0.132
Oxidative stress MR [2]: 1.36
Spheroid size MR [2]: 0.674
AC50 (read-out: Cellular ATP AC50, HepaRG spheroid): 1.63 µM
AC50 (read-out: DNA structure AC50, HepaRG spheroid): 5.13 µM
AC50 (read-out: Glutathione content AC50, HepaRG spheroid): 2.19 µM
AC50 (read-out: Mitochondrial mass AC50, HepaRG spheroid): 35.7 µM
AC50 (read-out: Mitochondrial membrane potential AC50, HepaRG spheroid): 12.4 µM
AC50 (read-out: Oxidative stress AC50, HepaRG spheroid): 15.4 µM
AC50 (read-out: Spheroid count AC50, HepaRG spheroid): > 100 µM
AC50 (read-out: Spheroid size AC50, HepaRG spheroid): > 40 µM
